Test results taken from article PMC8470823, “8-Amino-6-Methoxyquinoline—Tetrazole Hybrids: Impact of Linkers on Antiplasmodial Activity” (Molecules, 2021).
Where two headings read alike, the source gives them in different places.

Legend:
[1] = system: P. falciparum NF54; test: In vitro microplate assay against P. falciparum (3H-hypoxanthine incorporation); assay type: cell-based, Plasmodium falciparum; details: for S.I. = IC50 (Cyt.)/IC50 (P.f. NF54): selectivity index: L-6 cells IC50 / P.f. NF54 IC50
Experimental: Chloroquine (Sigma C6628) was used as standard. Compounds were dissolved in DMSO at 10 mg/mL and added to parasite cultures incubated in RPMI 1640 medium without hypoxanthine, supplemented with HEPES (5.94 g/L), NaHCO3 (2.1 g/L), neomycin (100 U/mL), Albumax (5 g/L) and washed human red cells A^+ at 2.5% hematocrit (0.3% parasitemia). Serial drug dilutions of 11 3-fold dilution steps covering a range from 100 to 0.002 μg/mL were prepared. […] After 48 h, 0.05 mL of ^3H-hypoxanthine (=0.5 μCi) was added to each well of the plate. The plates were incubated for a further 24 h under the same conditions. The plates were then harvested with a Betaplate cell harvester (Wallac, Zurich, Switzerland). The red blood cells were transferred onto a glass fiber filter and washed with distilled water. The dried filters were inserted into a plastic foil with 10 mL of scintillation fluid and counted in a Betaplate liquid scintillation counter (Wallac, Zurich, Switzerland). IC50 values were calculated from sigmoidal inhibition curves by linear regression using Microsoft Excel. Artemisinin and chloroquine were used as control.

[2] = In vitro cytotoxicity with L-6 cells (Alamar Blue); assay type: cell-based, rat
Experimental: (§1) Serial drug dilutions of 11 3-fold dilution steps covering a range from 100 to 0.002 μg/mL were prepared. After 70 h of incubation, the plates were inspected under an inverted microscope to assure the growth of the controls and sterile conditions. Then, 0.01 mL of Alamar Blue was added to each well and the plates incubated for another 2 h. The plates were read with a Spectramax Gemini XS microplate fluorometer (Molecular Devices Cooperation, Sunnyvale, CA, USA) using an excitation wavelength of 536 nm and an emission wavelength of 588 nm. The IC50 values were calculated by linear regression from the sigmoidal dose inhibition curves using SoftmaxPro software (Molecular Devices Cooperation, Sunnyvale, CA, USA). Podophyllotoxin (Sigma P4405) was used as control.

[3] = system: L-6 cells; test: In vitro cytotoxicity with L-6 cells (Alamar Blue); assay type: cell-based, rat
Experimental: as §1

[4] = rat skeletal myoblasts, average of four determinations, read-out: Cytotoxicity L-6 Cells IC50
[5] = Plasmodium falciparum, chloroquine-sensitive strain NF54, erythrocytic stages, average of four determinations, read-out: P.f. NF54 IC50
[6] = rat, Cytotoxicity L-6 Cells IC50

With `CCN(CC)CCCC(C)Nc1ccnc2cc(Cl)ccc12` (stereo not drawn) [CQ, chloroquine, reference compound] as the molecule, how does the IC50 ([1]; Plasmodium falciparum, NF54, read-out: P.f. NF54 IC50) read?
The IC50 was 3.9 nM.

And the “S.I. = IC50 (Cyt.)/IC50 (P.f. NF54)” value [1]?
The value was 23,313.

And the IC50 at 72 h [2, 4]?
The IC50 at 72 h was 90.9 µM.

With `CCC(NCCNc1cc(OC)cc2cccnc12)c1nnnn1C(C)(C)C` (stereo not drawn) [Compound 7, N^1-(6-Methoxyquinolin-8-yl)-N^2-(1-(tert-butyl-1H-tetrazol-5-yl)propyl)ethan-1,2-diamine] as the molecule, how does the IC50 [1, 5] read?
Its IC50 is 16000 nM.

What about the IC50 at 72 h [2, 6] of the same molecule?
Its IC50 at 72 h is 144 µM.

With `COc1cc(NCCNC(c2ccccc2)c2nnnn2C(C)(C)C)c2ncccc2c1` (stereo not drawn) [Compound 8, N^1-(6-Methoxyquinolin-8-yl)-N^2-((phenyl)(tert-butyl-1H-tetrazol-5-yl)methyl)ethan-1,2-diamine] as the molecule, how does the IC50 [1, 5] read?
The IC50 was 6090 nM.

And the “S.I. = IC50 (Cyt.)/IC50 (P.f. NF54)” value [1]?
Its value is 9.52.

And the IC50 at 72 h [2, 6]?
The IC50 at 72 h was 58 µM.

What does the source list for `COc1cc(NCCNC(c2ccc(F)cc2)c2nnnn2C(C)(C)C)c2ncccc2c1` (stereo not drawn) [Compound 9, N^1-((4-Fluorophenyl)(tert-butyl-1H-tetrazol-5-yl)methyl)-N^2-(6-methoxyquinolin-8-yl)ethan-1,2-diamine]?
IC50 [1, 5]: 7050 nM; S.I. = IC50 (Cyt.)/IC50 (P.f. NF54) [1]: 7.86; IC50 at 72 h [2, 6]: 55.4 µM

With `COc1cc(NCCNC(c2ccc(Cl)cc2)c2nnnn2C(C)(C)C)c2ncccc2c1` (stereo not drawn) [Compound 10, N^1-((4-Chlorophenyl)(tert-butyl-1H-tetrazol-5-yl)methyl)-N^2-(6-methoxyquinolin-8-yl)ethan-1,2-diamine] as the molecule, how does the IC50 [1, 5] read?
The IC50 was 5340 nM.

What about the “S.I. = IC50 (Cyt.)/IC50 (P.f. NF54)” value [1] of the same molecule?
Its value is 17.29.

What about the IC50 at 72 h [2, 6] of the same molecule?
Its IC50 at 72 h is 92.3 µM.

Which IC50 [1, 5] does the source give for `COc1cc(NCCNC(c2ccc(Br)cc2)c2nnnn2C(C)(C)C)c2ncccc2c1` (stereo not drawn) [Compound 11, N^1-((4-Bromophenyl)(tert-butyl-1H-tetrazol-5-yl)methyl)-N^2-(6-methoxyquinolin-8-yl)ethan-1,2-diamine] here?
Its IC50 is 2510 nM.

And the “S.I. = IC50 (Cyt.)/IC50 (P.f. NF54)” value [1]?
The value was 13.57.

And the IC50 at 72 h [2, 6]?
The IC50 at 72 h was 34.1 µM.

For `CCC(Nc1cc(OC)cc2cccnc12)c1nnnn1C(C)(C)C` (stereo not drawn) [Compound 13, 6-Methoxy-N-(1-(1-tert-butyl-1H-tetrazol-5-yl)propyl)quinolin-8-amine], which IC50 [1, 5] is on record?
Its IC50 is 23600 nM.

And the “S.I. = IC50 (Cyt.)/IC50 (P.f. NF54)” value [1]?
Its value is 3.86.

What about the IC50 at 72 h [2, 6] of the same molecule?
The IC50 at 72 h was 91.1 µM.

With `COc1cc(NC(c2ccccc2)c2nnnn2C(C)(C)C)c2ncccc2c1` (stereo not drawn) [Compound 14, 6-Methoxy-N-((phenyl)(1-tert-butyl-1H-tetrazol-5-yl)methyl)quinolin-8-amine] as the molecule, how does the IC50 [1, 5] read?
The IC50 was 5120 nM.

And the “S.I. = IC50 (Cyt.)/IC50 (P.f. NF54)” value [1]?
The value was 9.56.

What about the IC50 at 72 h [2, 6] of the same molecule?
Its IC50 at 72 h is 49 µM.

For `COc1cc(NC(c2ccc(F)cc2)c2nnnn2C(C)(C)C)c2ncccc2c1` (stereo not drawn) [Compound 15, N-((4-Fluorophenyl)(1-tert-butyl-1H-tetrazol-5-yl)methyl)-6-methoxyquinolin-8-amine], which IC50 [1, 5] is on record?
Its IC50 is 2680 nM.

And the IC50 ([3]; rat, 72 h)?
Its IC50 is 124 µM.

What about the IC50 at 72 h [2, 6] of the same molecule?
The IC50 at 72 h was 119 to 124 µM.

Which IC50 [1, 5] does the source give for `COc1cc(NC(c2ccc(Cl)cc2)c2nnnn2C(C)(C)C)c2ncccc2c1` (stereo not drawn) [Compound 16, N-((4-Chlorophenyl)(1-tert-butyl-1H-tetrazol-5-yl)methyl)-6-methoxyquinolin-8-amine] here?
Its IC50 is 743 nM.

What about the “S.I. = IC50 (Cyt.)/IC50 (P.f. NF54)” value [1] of the same molecule?
Its value is 318.3.

And the IC50 at 72 h [2, 6]?
The IC50 at 72 h was 236 µM.

With `COc1cc(NC(c2ccc(Br)cc2)c2nnnn2C(C)(C)C)c2ncccc2c1` (stereo not drawn) [Compound 17, N-((4-Bromophenyl)(1-tert-butyl-1H-tetrazol-5-yl)methyl)-6-methoxyquinolin-8-amine] as the molecule, how does the IC50 [1, 5] read?
Its IC50 is 464 nM.

What about the “S.I. = IC50 (Cyt.)/IC50 (P.f. NF54)” value [1] of the same molecule?
Its value is 208.8.

What about the IC50 at 72 h [2, 6] of the same molecule?
Its IC50 at 72 h is 96.9 µM.

For `COc1cc(NC(c2ccc(C(F)(F)F)cc2)c2nnnn2C(C)(C)C)c2ncccc2c1` (stereo not drawn) [Compound 18, 6-Methoxy-N-((1-tert-butyl-1H-tetrazol-5-yl)(4-(trifluoromethyl)phenyl)methyl)quinolin-8-amine], which IC50 [1, 5] is on record?
Its IC50 is 644 nM.

And the “S.I. = IC50 (Cyt.)/IC50 (P.f. NF54)” value [1]?
Its value is 273.3.

What about the IC50 at 72 h [2, 6] of the same molecule?
The IC50 at 72 h was 176 µM.

For `COc1cc(NC(c2ccc(C)cc2)c2nnnn2C(C)(C)C)c2ncccc2c1` (stereo not drawn) [Compound 19, 6-Methoxy-N-((4-methylphenyl)(1-tert-butyl-1H-tetrazol-5-yl)methyl)quinolin-8-amine], which IC50 [1, 5] is on record?
The IC50 was 1040 nM.

And the “S.I. = IC50 (Cyt.)/IC50 (P.f. NF54)” value [1]?
Its value is 238.9.

What about the IC50 at 72 h [2, 6] of the same molecule?
Its IC50 at 72 h is 248 µM.

With `COc1cc(NC(c2ccc(C(C)C)cc2)c2nnnn2C(C)(C)C)c2ncccc2c1` (stereo not drawn) [Compound 20, 6-Methoxy-N-((4-(propan-2-yl)phenyl)(1-tert-butyl-1H-tetrazol-5-yl)methyl)quinolin-8-amine] as the molecule, how does the IC50 [1, 5] read?
The IC50 was 2000 nM.

And the IC50 ([3]; rat, 72 h)?
Its IC50 is 119 µM.

What about the IC50 at 72 h [2, 6] of the same molecule?
The IC50 at 72 h was 119 to 124 µM.

For `COc1cc(NC(c2cccc3ccccc23)c2nnnn2C(C)(C)C)c2ncccc2c1` (stereo not drawn) [Compound 21, 6-Methoxy-N-((naphthalen-1-yl)(1-tert-butyl-1H-tetrazol-5-yl)methyl)quinolin-8-amine], which IC50 [1, 5] is on record?
The IC50 was 1260 nM.

What about the “S.I. = IC50 (Cyt.)/IC50 (P.f. NF54)” value [1] of the same molecule?
The value was 137.6.

What about the IC50 at 72 h [2, 6] of the same molecule?
Its IC50 at 72 h is 173 µM.

With `CCCCCCCC(Nc1cc(OC)cc2cccnc12)c1nnnn1C(C)(C)C` (stereo not drawn) [Compound 22, 6-Methoxy-N-(1-(1-tert-butyl-1H-tetrazol-5-yl)octyl)quinolin-8-amine] as the molecule, how does the IC50 [1, 5] read?
The IC50 was 324 nM.

What about the “S.I. = IC50 (Cyt.)/IC50 (P.f. NF54)” value [1] of the same molecule?
Its value is 168.9.

What about the IC50 at 72 h [2, 6] of the same molecule?
The IC50 at 72 h was 54.7 µM.

For `COc1cc([C@@H]2c3cc4c(cc3[C@H](O)[C@H]3COC(=O)[C@H]23)OCO4)cc(OC)c1OC` [POD, podophyllotoxin, reference compound], which IC50 [3, 4] is on record?
Its IC50 is 0.012 µM.

What does the source list for “N^1-(6-Methoxyquinolin-8-yl)-N^2-((tert-butyl-1H-tetrazol-5-yl)(2-(trifluoromethyl)phenyl) methyl)-ethan-1,2-diamine [Compound 12]”?
IC50 ([1]; chloroquine-sensitive strain NF54, erythrocytic stages, average of four determinations, read-out: P.f. NF54 IC50): 2920 nM; S.I. = IC50 (Cyt.)/IC50 (P.f. NF54) [1]: 7.64; IC50 [3]: 22.3 µM
